# Results reported in ChEMBL document CHEMBL1201862, “PubChem BioAssay data set” (2004).
#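 Step 1: Grow cells in 96-well plates. Step 2: Expose to compound for 48 hours at 5 concentrations. Step 3: Interpolate endpoints linearly; if unreached, use highest concentration. The concentration for 50% growth inhibition is given as GI50.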 Activity calls are given as the source filed them. Rule as the data show it: active = GI50 up to about 1.1 µM and inactive = higher.
# What was measured:
# Experiment in all cases: NCI tumour cell line growth inhibition, 48 h
# [1] = test system: A498
# [2] = test system: EKVX
# [3] = test system: NCI-H522
# [4] = test system: SK-MEL-2
# [5] = test system: HL-60
# [6] = test system: K562
# [7] = test system: OVCAR-4
# [8] = test system: SK-OV-3
# [9] = test system: UACC-62
# [10] = test system: COLO 205
# [11] = test system: Malme-3M
# [12] = test system: SF-539
# [13] = test system: OVCAR-8
# [14] = test system: Hs-578T
# [15] = test system: DU-145
# [16] = test system: IGROV-1
# [17] = test system: SK-MEL-5
# [18] = test system: TK-10
# [19] = test system: RPMI-8226
SMILES,GI50 [1],GI50 [2],GI50 [3],GI50 [4],GI50 [5],GI50 [6],GI50 [7],GI50 [8],GI50 [9],GI50 [10],GI50 [11],GI50 [12],GI50 [13],GI50 [14],GI50 [15],GI50 [16],GI50 [17],GI50 [18],GI50 [19]
Nc1ccn(C2OC(COP(=O)(O)OCC3OC(n4cc(F)c(=O)[nH]c4=O)CC3O)C(O)C2O)c(=O)n1 (stereo not drawn),0.225 µM (active),> 100 µM (inactive),14.6 µM (inactive),> 100 µM (inactive),0.237 µM (active),> 100 µM (inactive),> 100 µM (inactive),26.7 µM (inactive),0.0925 µM (active),4.68 µM (inactive),3.07 µM (inactive),< 0.0439 µM (active),1.37 µM (inactive),> 100 µM (inactive),0.0828 µM (active),> 34 µM (inactive),0.605 µM (active),–,–
C[C@]12CC[C@@H]3c4ccc(O)cc4CC[C@H]3[C@@H]1C/C(=C\c1ccncc1)[C@@H]2O,5.78 µM (inactive),18.5 µM (inactive),3.73 µM (inactive),11.4 µM (inactive),8.51 µM (inactive),–,14.8 µM (inactive),26.2 µM (inactive),10.8 µM (inactive),5.18 µM (inactive),5.04 µM (inactive),–,11.4 µM (inactive),4.42 µM (inactive),19.1 µM (inactive),7.43 µM (inactive),4.18 µM (inactive),22.9 µM (inactive),3.13 µM (inactive)
Clc1ccc(OCc2nn3c(CCc4nnc5sc(COc6ccc(Cl)cc6)nn45)nnc3s2)cc1,11.9 µM (inactive),27.7 µM (inactive),5.62 µM (inactive),25.7 µM (inactive),18.8 µM (inactive),9.4 µM (inactive),14.7 µM (inactive),28.8 µM (inactive),–,–,–,27.9 µM (inactive),14.5 µM (inactive),3.94 µM (inactive),19.1 µM (inactive),16.8 µM (inactive),11.1 µM (inactive),26.4 µM (inactive),17.3 µM (inactive)
CNC(=O)CN(C)C(=O)CCC(=O)N(C)C,> 100 µM (inactive),> 100 µM (inactive),> 100 µM (inactive),> 100 µM (inactive),> 100 µM (inactive),> 100 µM (inactive),–,> 100 µM (inactive),> 100 µM (inactive),> 100 µM (inactive),> 100 µM (inactive),> 100 µM (inactive),> 100 µM (inactive),> 100 µM (inactive),> 100 µM (inactive),> 100 µM (inactive),> 100 µM (inactive),> 100 µM (inactive),> 100 µM (inactive)
Cc1c(C)c(C)c(Cn2[nH]c(=O)n(C)c2=O)c(C)c1C,> 100 µM (inactive),> 100 µM (inactive),> 100 µM (inactive),> 100 µM (inactive),> 100 µM (inactive),> 100 µM (inactive),–,> 100 µM (inactive),> 100 µM (inactive),> 100 µM (inactive),> 100 µM (inactive),> 100 µM (inactive),> 100 µM (inactive),> 100 µM (inactive),> 100 µM (inactive),> 100 µM (inactive),> 100 µM (inactive),> 100 µM (inactive),> 100 µM (inactive)
CC1C(c2ccccc2O)c2cc3c(cc2OC1N1CCCC1)OCO3 (stereo not drawn),23.2 µM (inactive),41.9 µM (inactive),23.2 µM (inactive),23.4 µM (inactive),19.2 µM (inactive),20 µM (inactive),–,88.7 µM (inactive),35.5 µM (inactive),23.3 µM (inactive),25.3 µM (inactive),24.9 µM (inactive),11.5 µM (inactive),18.2 µM (inactive),45.1 µM (inactive),39.3 µM (inactive),39.2 µM (inactive),39.2 µM (inactive),24.5 µM (inactive)
CC(=O)Nc1ccc2c(c1)nc1c3ccccc3ccn21,> 100 µM (inactive),> 100 µM (inactive),> 100 µM (inactive),> 100 µM (inactive),> 100 µM (inactive),56.1 µM (inactive),> 100 µM (inactive),> 100 µM (inactive),> 100 µM (inactive),> 100 µM (inactive),> 100 µM (inactive),> 100 µM (inactive),> 100 µM (inactive),> 100 µM (inactive),> 100 µM (inactive),> 100 µM (inactive),> 100 µM (inactive),> 100 µM (inactive),–
COC(=O)CCNC(=O)OCc1ccccc1,> 100 µM (inactive),> 100 µM (inactive),> 100 µM (inactive),> 100 µM (inactive),> 100 µM (inactive),> 100 µM (inactive),–,> 100 µM (inactive),> 100 µM (inactive),> 100 µM (inactive),> 100 µM (inactive),> 100 µM (inactive),> 100 µM (inactive),> 100 µM (inactive),> 100 µM (inactive),> 100 µM (inactive),> 100 µM (inactive),> 100 µM (inactive),> 100 µM (inactive)
CC12CCC(C(Br)(Br)C1=O)C2(C)C (stereo not drawn),3.68 µM (inactive),0.493 µM (active),0.0208 µM (active),–,< 0.0148 µM (active),< 0.0202 µM (active),0.333 µM (active),1.51 µM (inactive),0.682 µM (active),3.01 µM (inactive),0.056 µM (active),2.94 µM (inactive),1.69 µM (inactive),0.251 µM (active),6.08 µM (inactive),< 0.0422 µM (active),0.348 µM (active),2.09 µM (inactive),0.0759 µM (active)
[O-][N+](CCO)(CCO)c1ncnc2[nH]cnc12,> 100 µM (inactive),> 100 µM (inactive),> 100 µM (inactive),> 100 µM (inactive),–,> 100 µM (inactive),> 100 µM (inactive),> 100 µM (inactive),> 100 µM (inactive),> 100 µM (inactive),> 100 µM (inactive),–,> 100 µM (inactive),> 100 µM (inactive),> 100 µM (inactive),> 100 µM (inactive),> 100 µM (inactive),> 100 µM (inactive),> 100 µM (inactive)
Cc1nnc(N)nc1/C=C\c1cccs1,22 µM (inactive),13.3 µM (inactive),4.06 µM (inactive),14.6 µM (inactive),6.11 µM (inactive),23.4 µM (inactive),21.6 µM (inactive),36.5 µM (inactive),14.9 µM (inactive),27.7 µM (inactive),13.4 µM (inactive),–,17 µM (inactive),19.9 µM (inactive),79.6 µM (inactive),12 µM (inactive),> 10 µM (inactive),32.4 µM (inactive),22.4 µM (inactive)
CC(C)(C)OC(=O)NCCC1CN(C(=O)c2ccccc2)c2ccccc21 (stereo not drawn),> 100 µM (inactive),25.6 µM (inactive),22.6 µM (inactive),27.7 µM (inactive),–,27 µM (inactive),36.9 µM (inactive),> 100 µM (inactive),19 µM (inactive),19.7 µM (inactive),28.9 µM (inactive),–,25.6 µM (inactive),43.5 µM (inactive),45.8 µM (inactive),29.5 µM (inactive),16.4 µM (inactive),56.2 µM (inactive),19.7 µM (inactive)
O=C1Nc2ccccc2/C1=N/Nc1ncccc1[N+](=O)[O-],71.3 µM (inactive),5.08 µM (inactive),9.71 µM (inactive),20.9 µM (inactive),–,3.95 µM (inactive),19.2 µM (inactive),12.1 µM (inactive),10.6 µM (inactive),–,17.3 µM (inactive),2.37 µM (inactive),17.6 µM (inactive),31.6 µM (inactive),14.6 µM (inactive),2.09 µM (inactive),–,14.1 µM (inactive),3.15 µM (inactive)
CO/C(N)=C(C#N)/N=C/c1cccs1,33.2 µM (inactive),42.4 µM (inactive),18.4 µM (inactive),> 100 µM (inactive),22 µM (inactive),42.2 µM (inactive),> 100 µM (inactive),> 100 µM (inactive),35.5 µM (inactive),36.6 µM (inactive),35.3 µM (inactive),92.7 µM (inactive),> 100 µM (inactive),66.2 µM (inactive),> 100 µM (inactive),77.6 µM (inactive),39.4 µM (inactive),> 100 µM (inactive),–
Nc1nc(N)c2ncn(Cc3c(Cl)cccc3Cl)c2n1,> 100 µM (inactive),28.4 µM (inactive),> 100 µM (inactive),> 100 µM (inactive),–,–,> 100 µM (inactive),> 100 µM (inactive),> 100 µM (inactive),> 100 µM (inactive),> 100 µM (inactive),> 100 µM (inactive),> 100 µM (inactive),> 100 µM (inactive),> 100 µM (inactive),> 100 µM (inactive),> 100 µM (inactive),> 100 µM (inactive),> 100 µM (inactive)
C=CCN1C(=O)C=C(c2ccccc2)n2ncc3cccc1c32,44.3 µM (inactive),95.5 µM (inactive),> 100 µM (inactive),> 100 µM (inactive),> 100 µM (inactive),–,–,> 100 µM (inactive),> 100 µM (inactive),> 100 µM (inactive),> 100 µM (inactive),> 100 µM (inactive),> 100 µM (inactive),> 100 µM (inactive),> 100 µM (inactive),> 100 µM (inactive),81.5 µM (inactive),> 100 µM (inactive),97.7 µM (inactive)
